Reference: the kinase profiling compilation of Christmann-Franck et al. (2016)

Assays:
Assay in all cases: radiometric filter-binding kinase assay
AURKB (human) = AURKB (human) (UniProt Q96GD4)
DCLK2 (human) = DCLK2 (human) (UniProt Q8N568)
LRRK2 (human) = LRRK2 (human) (UniProt Q5S007)
CaMK1 (human) = CaMK1 (human) (UniProt Q14012)
NTRK1 (human) = NTRK1 (human) (UniProt P04629)
MAPK1 (human) = MAPK1 (human) (UniProt P28482)
EPHB4 (human) = EPHB4 (human) (UniProt P54760)
DYRK3 (human) = DYRK3 (human) (UniProt O43781)
PRKACA (human) = PRKACA (human) (UniProt P17612)
STK3 (human) = STK3 (human) (UniProt Q13188)
EPHB2 (human) = EPHB2 (human) (UniProt P29323)
JAK2 JH1 JH2 (human) = JAK2 JH1 JH2 (human) (UniProt O60674)
RPS6KA5 KD1 KD2 (human) = RPS6KA5 KD1 KD2 (human) (UniProt O75582)
BRSK2 (human) = BRSK2 (human) (UniProt Q8IWQ3)
MAPKAPK5 (human) = MAPKAPK5 (human) (UniProt Q8IW41)
PHKG1 (human) = PHKG1 (human) (UniProt Q16816)
EPHA4 (human) = EPHA4 (human) (UniProt P54764)
HIPK2 (human) = HIPK2 (human) (UniProt Q9H2X6)
IGF1R (human) = IGF1R (human) (UniProt P08069)
NEK6 (human) = NEK6 (human) (UniProt Q9HC98)
GCK (human) = GCK (human) (UniProt Q12851)
CSNK2A1 (human) = CSNK2A1 (human) (UniProt P68400)
MAPK8 (human) = MAPK8 (human) (UniProt P45983)
MAPK12 (human) = MAPK12 (human) (UniProt P53778)
HIPK3 (human) = HIPK3 (human) (UniProt Q9H422)
GSK3B (human) = GSK3B (human) (UniProt P49841)
PAK6 (human) = PAK6 (human) (UniProt Q9NQU5)
CDK2 CCNA2 (human) = CDK2 CCNA2 (human) (UniProt P20248+P24941)
MAP3K7 TAB1 (human) = MAP3K7 TAB1 (human) (UniProt Q15750+O43318)
MAPK15 (human) = MAPK15 (human) (UniProt Q8TD08)
[1] = test system: AKT2 (human), P31751 [S474D]
MKNK2 (human) = MKNK2 (human) (UniProt Q9HBH9)
ERBB4 (human) = ERBB4 (human) (UniProt Q15303)

Sequence of AURKB (human) (Q96GD4 whole entry, looked up): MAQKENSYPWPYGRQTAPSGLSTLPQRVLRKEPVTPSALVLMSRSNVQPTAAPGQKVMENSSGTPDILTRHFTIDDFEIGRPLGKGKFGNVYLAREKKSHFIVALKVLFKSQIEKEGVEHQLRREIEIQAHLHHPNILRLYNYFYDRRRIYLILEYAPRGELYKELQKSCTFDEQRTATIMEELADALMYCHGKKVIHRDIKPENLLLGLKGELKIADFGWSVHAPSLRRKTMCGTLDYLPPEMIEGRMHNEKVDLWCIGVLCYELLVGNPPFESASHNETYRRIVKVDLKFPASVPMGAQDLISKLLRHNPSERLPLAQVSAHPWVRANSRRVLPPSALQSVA
Sequence of MKNK2 (human) (Q9HBH9 whole entry, looked up): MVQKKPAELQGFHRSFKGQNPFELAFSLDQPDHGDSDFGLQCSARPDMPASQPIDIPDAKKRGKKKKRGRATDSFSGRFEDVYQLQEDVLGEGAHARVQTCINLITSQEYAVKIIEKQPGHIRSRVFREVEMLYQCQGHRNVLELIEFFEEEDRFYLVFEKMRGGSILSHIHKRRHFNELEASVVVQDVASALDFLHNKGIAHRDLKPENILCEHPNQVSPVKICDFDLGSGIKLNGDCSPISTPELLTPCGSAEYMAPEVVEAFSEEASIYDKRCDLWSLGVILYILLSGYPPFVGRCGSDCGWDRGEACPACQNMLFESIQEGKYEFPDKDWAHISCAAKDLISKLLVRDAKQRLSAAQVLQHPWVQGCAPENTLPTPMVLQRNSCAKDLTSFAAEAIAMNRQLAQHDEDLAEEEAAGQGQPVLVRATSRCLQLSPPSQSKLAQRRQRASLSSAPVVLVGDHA
Sequence of AKT2 (human), P31751 [S474D] (P31751 whole entry S474D, looked up): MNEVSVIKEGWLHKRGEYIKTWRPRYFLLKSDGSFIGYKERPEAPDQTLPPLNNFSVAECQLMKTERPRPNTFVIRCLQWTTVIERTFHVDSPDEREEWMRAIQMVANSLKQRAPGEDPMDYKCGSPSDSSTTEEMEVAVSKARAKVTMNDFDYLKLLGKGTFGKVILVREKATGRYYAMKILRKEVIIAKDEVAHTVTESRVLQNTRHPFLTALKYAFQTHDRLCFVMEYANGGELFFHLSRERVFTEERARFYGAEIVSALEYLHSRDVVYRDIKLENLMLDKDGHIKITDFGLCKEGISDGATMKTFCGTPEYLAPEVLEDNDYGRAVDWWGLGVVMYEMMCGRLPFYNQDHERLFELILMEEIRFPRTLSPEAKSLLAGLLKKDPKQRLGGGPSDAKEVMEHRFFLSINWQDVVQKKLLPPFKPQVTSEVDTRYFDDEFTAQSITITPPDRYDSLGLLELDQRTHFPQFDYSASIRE
Sequence of MAPK15 (human) (Q8TD08 whole entry, looked up): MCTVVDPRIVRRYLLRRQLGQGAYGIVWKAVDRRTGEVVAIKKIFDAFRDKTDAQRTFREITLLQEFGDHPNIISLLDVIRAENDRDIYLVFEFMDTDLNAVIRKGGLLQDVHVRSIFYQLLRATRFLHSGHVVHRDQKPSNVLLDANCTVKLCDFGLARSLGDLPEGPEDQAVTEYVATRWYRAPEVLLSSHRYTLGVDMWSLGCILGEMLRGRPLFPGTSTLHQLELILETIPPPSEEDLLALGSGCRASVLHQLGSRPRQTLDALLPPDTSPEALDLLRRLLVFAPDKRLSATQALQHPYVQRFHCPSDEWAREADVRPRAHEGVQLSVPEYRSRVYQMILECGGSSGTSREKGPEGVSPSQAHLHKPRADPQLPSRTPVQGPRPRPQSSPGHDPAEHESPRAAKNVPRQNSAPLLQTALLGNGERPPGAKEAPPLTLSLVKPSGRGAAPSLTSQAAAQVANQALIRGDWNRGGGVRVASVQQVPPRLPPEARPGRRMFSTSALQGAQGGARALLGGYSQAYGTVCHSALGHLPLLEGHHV
Sequence of EPHB2 (human) (P29323 whole entry, looked up): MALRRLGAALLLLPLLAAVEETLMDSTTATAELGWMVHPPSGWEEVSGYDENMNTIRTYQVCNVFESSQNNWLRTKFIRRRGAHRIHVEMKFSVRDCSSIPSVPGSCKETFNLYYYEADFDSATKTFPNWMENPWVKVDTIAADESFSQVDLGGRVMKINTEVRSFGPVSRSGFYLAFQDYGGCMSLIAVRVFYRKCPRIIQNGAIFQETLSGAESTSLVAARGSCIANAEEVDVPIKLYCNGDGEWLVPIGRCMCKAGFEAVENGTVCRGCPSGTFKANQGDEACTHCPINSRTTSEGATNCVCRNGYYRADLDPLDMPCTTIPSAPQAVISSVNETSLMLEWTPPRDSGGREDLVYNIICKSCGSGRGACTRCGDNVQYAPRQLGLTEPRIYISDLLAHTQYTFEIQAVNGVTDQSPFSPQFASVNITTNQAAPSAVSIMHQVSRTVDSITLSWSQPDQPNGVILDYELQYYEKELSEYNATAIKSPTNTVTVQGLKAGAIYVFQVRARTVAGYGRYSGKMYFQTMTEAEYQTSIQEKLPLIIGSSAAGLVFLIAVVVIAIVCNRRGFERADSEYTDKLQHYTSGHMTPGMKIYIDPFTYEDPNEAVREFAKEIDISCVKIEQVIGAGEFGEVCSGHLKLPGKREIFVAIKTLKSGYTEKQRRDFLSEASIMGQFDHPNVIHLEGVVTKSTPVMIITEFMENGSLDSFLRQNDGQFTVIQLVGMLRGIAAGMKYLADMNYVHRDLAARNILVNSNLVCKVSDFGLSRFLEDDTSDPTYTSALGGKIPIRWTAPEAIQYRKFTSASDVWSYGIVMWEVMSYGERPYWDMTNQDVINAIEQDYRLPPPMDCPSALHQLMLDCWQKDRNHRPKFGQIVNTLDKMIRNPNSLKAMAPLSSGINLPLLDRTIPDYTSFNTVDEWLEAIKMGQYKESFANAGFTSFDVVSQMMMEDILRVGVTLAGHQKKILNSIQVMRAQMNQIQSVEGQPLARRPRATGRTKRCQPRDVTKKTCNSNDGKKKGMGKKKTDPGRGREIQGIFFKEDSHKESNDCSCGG
Sequence of RPS6KA5 KD1 KD2 (human) (O75582 whole entry, looked up): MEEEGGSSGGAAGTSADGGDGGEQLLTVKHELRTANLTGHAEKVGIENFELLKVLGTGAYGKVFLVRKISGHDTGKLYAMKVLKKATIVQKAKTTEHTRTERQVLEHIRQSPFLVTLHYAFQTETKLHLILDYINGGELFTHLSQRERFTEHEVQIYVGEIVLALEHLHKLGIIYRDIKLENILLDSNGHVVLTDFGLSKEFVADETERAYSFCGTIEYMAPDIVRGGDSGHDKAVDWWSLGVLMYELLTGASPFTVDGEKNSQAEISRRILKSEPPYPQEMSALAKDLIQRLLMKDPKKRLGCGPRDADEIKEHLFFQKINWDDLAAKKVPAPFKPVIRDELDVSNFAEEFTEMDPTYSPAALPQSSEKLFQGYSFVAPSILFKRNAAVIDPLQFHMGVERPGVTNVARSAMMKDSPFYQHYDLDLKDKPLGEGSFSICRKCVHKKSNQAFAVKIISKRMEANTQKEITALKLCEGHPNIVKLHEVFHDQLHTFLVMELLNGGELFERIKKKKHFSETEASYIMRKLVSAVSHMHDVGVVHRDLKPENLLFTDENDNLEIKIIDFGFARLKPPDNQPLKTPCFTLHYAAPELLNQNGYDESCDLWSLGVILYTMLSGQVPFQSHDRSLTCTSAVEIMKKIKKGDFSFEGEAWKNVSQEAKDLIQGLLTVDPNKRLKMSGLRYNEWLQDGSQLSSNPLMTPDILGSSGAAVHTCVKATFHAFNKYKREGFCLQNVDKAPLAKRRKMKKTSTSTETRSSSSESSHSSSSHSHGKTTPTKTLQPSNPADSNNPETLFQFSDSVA
Sequence of HIPK3 (human) (Q9H422 whole entry, looked up): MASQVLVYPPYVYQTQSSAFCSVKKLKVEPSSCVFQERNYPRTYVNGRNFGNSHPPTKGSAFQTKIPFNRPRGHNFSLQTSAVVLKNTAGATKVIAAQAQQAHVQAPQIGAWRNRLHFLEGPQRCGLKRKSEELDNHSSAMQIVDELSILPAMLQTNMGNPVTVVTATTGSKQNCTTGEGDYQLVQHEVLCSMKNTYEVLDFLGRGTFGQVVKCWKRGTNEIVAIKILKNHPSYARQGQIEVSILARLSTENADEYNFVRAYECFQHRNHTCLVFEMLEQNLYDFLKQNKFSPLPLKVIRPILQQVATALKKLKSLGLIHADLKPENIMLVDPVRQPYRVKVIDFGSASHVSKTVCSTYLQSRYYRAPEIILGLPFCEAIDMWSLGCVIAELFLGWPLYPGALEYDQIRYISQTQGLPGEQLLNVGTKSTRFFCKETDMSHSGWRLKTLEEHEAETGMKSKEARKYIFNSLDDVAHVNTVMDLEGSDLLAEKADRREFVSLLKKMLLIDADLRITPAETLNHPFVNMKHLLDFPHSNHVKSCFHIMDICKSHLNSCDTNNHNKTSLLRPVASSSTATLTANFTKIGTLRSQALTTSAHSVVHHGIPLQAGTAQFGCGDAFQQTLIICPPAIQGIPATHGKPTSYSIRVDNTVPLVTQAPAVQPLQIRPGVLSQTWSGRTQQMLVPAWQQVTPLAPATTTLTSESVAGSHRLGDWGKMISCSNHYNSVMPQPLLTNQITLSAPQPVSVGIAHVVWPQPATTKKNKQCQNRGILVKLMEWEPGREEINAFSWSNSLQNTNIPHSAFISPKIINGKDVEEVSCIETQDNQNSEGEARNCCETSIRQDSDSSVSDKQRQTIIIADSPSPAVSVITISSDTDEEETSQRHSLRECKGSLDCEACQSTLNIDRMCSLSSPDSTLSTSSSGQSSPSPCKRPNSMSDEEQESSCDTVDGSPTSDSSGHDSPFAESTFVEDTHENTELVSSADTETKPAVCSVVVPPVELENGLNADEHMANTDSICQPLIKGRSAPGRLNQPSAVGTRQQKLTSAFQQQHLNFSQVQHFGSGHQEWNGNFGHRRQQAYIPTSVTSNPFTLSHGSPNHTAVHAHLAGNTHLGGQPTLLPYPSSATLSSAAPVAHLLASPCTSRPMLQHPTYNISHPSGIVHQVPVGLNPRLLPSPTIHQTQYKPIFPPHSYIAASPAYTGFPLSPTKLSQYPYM

For `COc1cc(C(=O)N2CCC(N3CCN(C)CC3)CC2)ccc1Nc1ncc2c(n1)N(C)c1ccccc1C(=O)N2C`, which IC50 (AURKB (human)) is on record?
The IC50 was 1100 nM.

And the residual activity (AURKB (human); compound 1.0 µM)?
Its residual activity is 64%.

And the residual activity (AURKB (human); compound 10.0 µM)?
The residual activity was 28%.

And the IC50 (DCLK2 (human))?
Its IC50 is 210 nM.

What about the IC50 (LRRK2 (human)) of the same compound?
The IC50 was 13 nM.

And the residual activity (CaMK1 (human); compound 1.0 µM)?
Its residual activity is 75%.

And the residual activity (CaMK1 (human); compound 10.0 µM)?
Its residual activity is 43%.

What about the residual activity (NTRK1 (human); compound 1.0 µM) of the same compound?
The residual activity was 79%.

What about the residual activity (NTRK1 (human); compound 10.0 µM) of the same compound?
The residual activity was 32%.

What about the residual activity (MAPK1 (human); compound 1.0 µM) of the same compound?
The residual activity was 83%.

And the residual activity (MAPK1 (human); compound 10.0 µM)?
The residual activity was 85%.

And the residual activity (EPHB4 (human); compound 1.0 µM)?
Its residual activity is 90%.

What about the residual activity (EPHB4 (human); compound 10.0 µM) of the same compound?
Its residual activity is 107%.

What about the residual activity (DYRK3 (human); compound 1.0 µM) of the same compound?
The residual activity was 95%.

What about the residual activity (DYRK3 (human); compound 10.0 µM) of the same compound?
Its residual activity is 96%.

And the residual activity (PRKACA (human); compound 1.0 µM)?
Its residual activity is 79%.

What about the residual activity (PRKACA (human); compound 10.0 µM) of the same compound?
Its residual activity is 93%.

What about the residual activity (STK3 (human); compound 1.0 µM) of the same compound?
Its residual activity is 100%.

And the residual activity (STK3 (human); compound 10.0 µM)?
Its residual activity is 98%.

What about the residual activity (EPHB2 (human); compound 1.0 µM) of the same compound?
The residual activity was 96%.

What about the residual activity (EPHB2 (human); compound 10.0 µM) of the same compound?
Its residual activity is 93%.

What about the residual activity (JAK2 JH1 JH2 (human); compound 1.0 µM) of the same compound?
The residual activity was 74%.

And the residual activity (JAK2 JH1 JH2 (human); compound 10.0 µM)?
The residual activity was 80%.

What about the residual activity (RPS6KA5 KD1 KD2 (human); compound 1.0 µM) of the same compound?
Its residual activity is 79%.

And the residual activity (RPS6KA5 KD1 KD2 (human); compound 10.0 µM)?
The residual activity was 84%.

And the residual activity (BRSK2 (human); compound 1.0 µM)?
Its residual activity is 89%.

What about the residual activity (BRSK2 (human); compound 10.0 µM) of the same compound?
The residual activity was 87%.

And the residual activity (MAPKAPK5 (human); compound 1.0 µM)?
The residual activity was 102%.

What about the residual activity (MAPKAPK5 (human); compound 10.0 µM) of the same compound?
The residual activity was 107%.

And the residual activity (PHKG1 (human); compound 1.0 µM)?
Its residual activity is 98%.

And the residual activity (PHKG1 (human); compound 10.0 µM)?
The residual activity was 59%.

And the residual activity (EPHA4 (human); compound 1.0 µM)?
Its residual activity is 88%.

And the residual activity (EPHA4 (human); compound 10.0 µM)?
The residual activity was 94%.

What about the residual activity (HIPK2 (human); compound 1.0 µM) of the same compound?
Its residual activity is 76%.

What about the residual activity (HIPK2 (human); compound 10.0 µM) of the same compound?
Its residual activity is 86%.

And the residual activity (IGF1R (human); compound 1.0 µM)?
Its residual activity is 107%.

What about the residual activity (IGF1R (human); compound 10.0 µM) of the same compound?
Its residual activity is 90%.

And the residual activity (NEK6 (human); compound 1.0 µM)?
Its residual activity is 90%.

And the residual activity (NEK6 (human); compound 10.0 µM)?
Its residual activity is 110%.

And the residual activity (GCK (human); compound 1.0 µM)?
The residual activity was 93%.

And the residual activity (GCK (human); compound 10.0 µM)?
The residual activity was 99%.

And the residual activity (CSNK2A1 (human); compound 1.0 µM)?
Its residual activity is 71%.

What about the residual activity (CSNK2A1 (human); compound 10.0 µM) of the same compound?
Its residual activity is 80%.

And the residual activity (MAPK8 (human); compound 1.0 µM)?
The residual activity was 85%.

What about the residual activity (MAPK8 (human); compound 10.0 µM) of the same compound?
The residual activity was 96%.

And the residual activity (MAPK12 (human); compound 1.0 µM)?
The residual activity was 90%.

And the residual activity (MAPK12 (human); compound 10.0 µM)?
Its residual activity is 106%.

And the residual activity (HIPK3 (human); compound 1.0 µM)?
The residual activity was 90%.

And the residual activity (HIPK3 (human); compound 10.0 µM)?
The residual activity was 102%.

What about the residual activity (GSK3B (human); compound 1.0 µM) of the same compound?
Its residual activity is 90%.

And the residual activity (GSK3B (human); compound 10.0 µM)?
The residual activity was 95%.

And the residual activity (PAK6 (human); compound 1.0 µM)?
The residual activity was 94%.

What about the residual activity (PAK6 (human); compound 10.0 µM) of the same compound?
Its residual activity is 89%.

And the residual activity (CDK2 CCNA2 (human); compound 1.0 µM)?
Its residual activity is 84%.

What about the residual activity (CDK2 CCNA2 (human); compound 10.0 µM) of the same compound?
The residual activity was 79%.

And the residual activity (MAP3K7 TAB1 (human); compound 1.0 µM)?
Its residual activity is 85%.

And the residual activity (MAP3K7 TAB1 (human); compound 10.0 µM)?
The residual activity was 82%.

What about the residual activity (MAPK15 (human); compound 1.0 µM) of the same compound?
The residual activity was 86%.

What about the residual activity (MAPK15 (human); compound 10.0 µM) of the same compound?
The residual activity was 104%.

And the residual activity ([1]; compound 1.0 µM)?
Its residual activity is 93%.

What about the residual activity ([1]; compound 10.0 µM) of the same compound?
The residual activity was 79%.

What about the IC50 (MKNK2 (human)) of the same compound?
The IC50 was 7200 nM.

What about the residual activity (MKNK2 (human); compound 1.0 µM) of the same compound?
The residual activity was 72%.

And the residual activity (MKNK2 (human); compound 10.0 µM)?
The residual activity was 22%.

And the residual activity (ERBB4 (human); compound 1.0 µM)?
The residual activity was 68%.

And the residual activity (ERBB4 (human); compound 10.0 µM)?
Its residual activity is 72%.
